pIC50: −log10 of the molar value.
Biological target: human PDE10A (Homo sapiens (Human), UniProt Q9Y233)
Test: human PDE10A full length Scintillation Proximity Assay (SPA)
Format: biochemical
Details: 50 nM cGMP and 50 nM [3H]-cGMP, 20 minutes at room temperature; read-out: PDE10A inhibition IC50
Procedure, shortened: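 Radiometric SPA read-out: after 20 min at room temperature with [^3H]-cGMP/cGMP substrate, zinc sulphate (18 mM) bead stop reagent added and counts read after 1 h. Non-specific signal defined without enzyme; full-length protein used.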

Sequence of human PDE10A (Q9Y233 other isoform, or with tags, fused parts or gaps): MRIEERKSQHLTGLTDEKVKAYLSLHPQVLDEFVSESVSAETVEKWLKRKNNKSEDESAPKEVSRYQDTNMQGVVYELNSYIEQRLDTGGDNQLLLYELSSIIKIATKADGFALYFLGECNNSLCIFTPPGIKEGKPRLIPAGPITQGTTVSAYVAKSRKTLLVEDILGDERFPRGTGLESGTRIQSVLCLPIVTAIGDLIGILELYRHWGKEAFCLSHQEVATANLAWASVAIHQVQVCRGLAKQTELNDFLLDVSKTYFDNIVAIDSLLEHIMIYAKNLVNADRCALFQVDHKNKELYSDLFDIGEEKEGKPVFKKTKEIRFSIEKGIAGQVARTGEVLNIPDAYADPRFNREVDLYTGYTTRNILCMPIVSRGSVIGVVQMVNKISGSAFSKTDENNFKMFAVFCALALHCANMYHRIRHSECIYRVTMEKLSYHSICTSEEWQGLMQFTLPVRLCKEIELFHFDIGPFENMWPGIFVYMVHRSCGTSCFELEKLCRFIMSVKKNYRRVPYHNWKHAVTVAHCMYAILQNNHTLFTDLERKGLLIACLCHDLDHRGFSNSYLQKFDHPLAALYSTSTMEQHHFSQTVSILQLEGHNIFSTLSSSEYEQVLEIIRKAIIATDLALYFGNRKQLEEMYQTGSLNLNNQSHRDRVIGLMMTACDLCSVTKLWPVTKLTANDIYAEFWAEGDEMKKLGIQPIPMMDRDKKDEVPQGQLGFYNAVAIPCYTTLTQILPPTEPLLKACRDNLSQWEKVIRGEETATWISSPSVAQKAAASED

Compound | pIC50
CN1CCCC(NC(=O)c2c(NC(=O)c3nc(C4CC4)cnc3Nc3cncnc3)cnn2C)C1 (stereo not shown) [Example 241, 6-Cyclopropyl-3-(pyrimidin-5-ylamino)-pyrazine-2-carboxylic acid [1-methyl-5-(1-methyl-piperidin-3-ylcarbamoyl)-1H-pyrazol-4-yl]-amide] | 7.54
CNC(=O)c1c(NC(=O)c2nc(C3CC3)cnc2Nc2cncnc2)cnn1CC1CCCO1 (stereo not shown) [Example 243, 6-Cyclopropyl-3-(pyrimidin-5-ylamino)-pyrazine-2-carboxylic acid [5-methylcarbamoyl-1-(tetrahydro-furan-2-ylmethyl)-1H-pyrazol-4-yl]-amide] | 8.85
CC(C)(O)CNC(=O)c1c(NC(=O)c2nc(C3CC3)cnc2Nc2cncnc2)cnn1CC1CCCO1 (stereo not shown) [Example 244, 6-Cyclopropyl-3-(pyrimidin-5-ylamino)-pyrazine-2-carboxylic acid [5-(2-hydroxy-2-methyl-propylcarbamoyl)-1-(tetrahydro-furan-2-ylmethyl)-1H-pyrazol-4-yl]-amide] | 9.70
CN(CCF)C(=O)c1c(NC(=O)c2nc(C3CC3)cnc2Nc2cncnc2)cnn1C [Example 245, 6-Cyclopropyl-3-(pyrimidin-5-ylamino)-pyrazine-2-carboxylic acid {5-[(2-fluoro-ethyl)-methyl-carbamoyl]-1-methyl-1H-pyrazol-4-yl}-amide] | 7.44
CN1CCC(N(C)C(=O)c2c(NC(=O)c3nc(C4CC4)cnc3Nc3cncnc3)cnn2C)C1 (stereo not shown) [Example 247, 6-Cyclopropyl-3-(pyrimidin-5-ylamino)-pyrazine-2-carboxylic acid {1-methyl-5-[methyl-(1-methyl-pyrrolidin-3-yl)-carbamoyl]-1H-pyrazol-4-yl}-amide] | 6.54
CN(CC1CCCO1)C(=O)c1c(NC(=O)c2nc(C3CC3)cnc2Nc2cncnc2)cnn1C (stereo not shown) [Example 257, 6-Cyclopropyl-3-(pyrimidin-5-ylamino)-pyrazine-2-carboxylic acid {1-methyl-5-[methyl-(tetrahydro-furan-2-ylmethyl)-carbamoyl]-1H-pyrazol-4-yl}-amide] | 7.17
CNC(=O)c1cc(Cl)ncc1NC(=O)c1nc(C2CC2)cnc1Nc1cncnc1 [Example 259, 6-Cyclopropyl-3-(pyrimidin-5-ylamino)-pyrazine-2-carboxylic acid (6-chloro-4-methylcarbamoyl-pyridin-3-yl)-amide] | 8.74
CC(C)(O)CNC(=O)c1cc(Cl)ncc1NC(=O)c1nc(C2CC2)cnc1Nc1cncnc1 [Example 260, 6-Cyclopropyl-3-(pyrimidin-5-ylamino)-pyrazine-2-carboxylic acid [6-chloro-4-(2-hydroxy-2-methyl-propylcarbamoyl)-pyridin-3-yl]-amide] | 8.80
CNC(=O)c1c(NC(=O)c2nc(C3CC3)cnc2Nc2cncnc2)cnn1CCO [Example 264, 6-Cyclopropyl-3-(pyrimidin-5-ylamino)-pyrazine-2-carboxylic acid [1-(2-hydroxy-ethyl)-5-methylcarbamoyl-1H-pyrazol-4-yl]-amide] | 8.49
CNC(=O)c1c(NC(=O)c2nc([C@@H]3CCOC3)cnc2Nc2cncnc2)cnn1C [Example 267, 3-(Pyrimidin-5-ylamino)-6-(S)-tetrahydro-furan-3-yl-pyrazine-2-carboxylic acid (1-methyl-5-methylcarbamoyl-1H-pyrazol-4-yl)-amide] | 8.15
CCN(CCO)C(=O)c1ncccc1NC(=O)c1nc(C2CC2)cnc1Nc1cncnc1 [Example 270, 6-Cyclopropyl-3-(pyrimidin-5-ylamino)-pyrazine-2-carboxylic acid {2-[ethyl-(2-hydroxy-ethyl)-carbamoyl]-pyridin-3-yl}-amide] | 7.27
O=C(NCCO)c1ncccc1NC(=O)c1nc(C2CC2)cnc1Nc1cncnc1 [Example 271, 6-Cyclopropyl-3-(pyrimidin-5-ylamino)-pyrazine-2-carboxylic acid [2-(2-hydroxy-ethylcarbamoyl)-pyridin-3-yl]-amide] | 9.40
CC1(NC(=O)c2ncccc2NC(=O)c2nc(C3CC3)cnc2Nc2cncnc2)COC1 [Example 275, 6-Cyclopropyl-3-(pyrimidin-5-ylamino)-pyrazine-2-carboxylic acid [2-(3-methyl-oxetan-3-ylcarbamoyl)-pyridin-3-yl]-amide] | 9.40
O=C(NC1COC1)c1ncccc1NC(=O)c1nc(C2CC2)cnc1Nc1cncnc1 [Example 277, 6-Cyclopropyl-3-(pyrimidin-5-ylamino)-pyrazine-2-carboxylic acid [2-(oxetan-3-ylcarbamoyl)-pyridin-3-yl]-amide] | 8.57

Other lines, results leading:

pIC50 | Compound
7.16 | CN1CCC(NC(=O)c2c(NC(=O)c3nc(C4CC4)cnc3Nc3cncnc3)cnn2C)CC1 [Example 242, 6-Cyclopropyl-3-(pyrimidin-5-ylamino)-pyrazine-2-carboxylic acid [1-methyl-5-(1-methyl-piperidin-4-ylcarbamoyl)-1H-pyrazol-4-yl]-amide]
7.80 | CNC(=O)c1c(NC(=O)c2nc(C3CC3)cnc2Nc2cncnc2)cnn1C1CCOC1 (stereo not shown) [Example 250, 6-Cyclopropyl-3-(pyrimidin-5-ylamino)-pyrazine-2-carboxylic acid [5-methylcarbamoyl-1-(tetrahydro-furan-3-yl)-1H-pyrazol-4-yl]-amide]
6.86 | Cn1ncc(NC(=O)c2nc(C3CC3)cnc2Nc2cncnc2)c1C(=O)NC1CCNC1 (stereo not shown) [Example 251, 6-Cyclopropyl-3-(pyrimidin-5-ylamino)-pyrazine-2-carboxylic acid [1-methyl-5-(pyrrolidin-3-ylcarbamoyl)-1H-pyrazol-4-yl]-amide]
8.24 | CC1CCCN1C(=O)c1ncccc1NC(=O)c1nc(C2CC2)cnc1Nc1cncnc1 (stereo not shown) [Example 252, 6-Cyclopropyl-3-(pyrimidin-5-ylamino)-pyrazine-2-carboxylic acid [2-(2-methyl-pyrrolidine-1-carbonyl)-pyridin-3-yl]-amide]
7.50 | CC1COCCN1C(=O)c1ncccc1NC(=O)c1nc(C2CC2)cnc1Nc1cncnc1 (stereo not shown) [Example 254, 6-Cyclopropyl-3-(pyrimidin-5-ylamino)-pyrazine-2-carboxylic acid [2-(3-methyl-morpholine-4-carbonyl)-pyridin-3-yl]-amide]
8.54 | Cn1ncc(NC(=O)c2nc(C3CC3)cnc2Nc2cncnc2)c1C(=O)NC[C@@H]1CCCO1 [Example 255, 6-Cyclopropyl-3-(pyrimidin-5-ylamino)-pyrazine-2-carboxylic acid (1-methyl-5-{[(S)-1-(tetrahydro-furan-2-yl)methyl]-carbamoyl}-1H-pyrazol-4-yl)-amide]
8.48 | Cn1ncc(NC(=O)c2nc(C3CC3)cnc2Nc2cncnc2)c1C(=O)NC[C@H]1CCCO1 [Example 256, 6-Cyclopropyl-3-(pyrimidin-5-ylamino)-pyrazine-2-carboxylic acid (1-methyl-5-{[(R)-1-(tetrahydro-furan-2-yl)methyl]-carbamoyl}-1H-pyrazol-4-yl)-amide]
6.75 | CNC(=O)c1c(NC(=O)c2nc(OC)cnc2Nc2cncnc2)cnn1C [Example 258, 6-Methoxy-3-(pyrimidin-5-ylamino)-pyrazine-2-carboxylic acid (1-methyl-5-methylcarbamoyl-1H-pyrazol-4-yl)-amide]
8.46 | CNC(=O)c1cc(C#N)ccc1NC(=O)c1nc(C2CC2)cnc1Nc1cncnc1 [Example 261, 6-Cyclopropyl-3-(pyrimidin-5-ylamino)-pyrazine-2-carboxylic acid (4-cyano-2-methylcarbamoyl-phenyl)-amide]
7.27 | CNC(=O)c1c(NC(=O)c2nc(C3CC3)cnc2Nc2cncnc2)ccc(C)c1C [Example 263, 6-Cyclopropyl-3-(pyrimidin-5-ylamino)-pyrazine-2-carboxylic acid (3,4-dimethyl-2-methylcarbamoyl-phenyl)-amide]
7.69 | CN(C)C(=O)c1nc(C2CC2)ccc1NC(=O)c1nc(C2CC2)cnc1Nc1cncnc1 [Example 265, 6-Cyclopropyl-3-(pyrimidin-5-ylamino)-pyrazine-2-carboxylic acid (6-cyclopropyl-2-dimethylcarbamoyl-pyridin-3-yl)-amide]
7.92 | CNC(=O)c1c(NC(=O)c2nc([C@H]3CCOC3)cnc2Nc2cncnc2)cnn1C [Example 266, 3-(Pyrimidin-5-ylamino)-6-(R)-tetrahydro-furan-3-yl-pyrazine-2-carboxylic acid (1-methyl-5-methylcarbamoyl-1H-pyrazol-4-yl)-amide]
7.83 | Cc1ccc(NC(=O)c2nc(C3CC3)cnc2Nc2cncnc2)c(C(=O)N(C)C)n1 [Example 268, 6-Cyclopropyl-3-(pyrimidin-5-ylamino)-pyrazine-2-carboxylic acid (2-dimethylcarbamoyl-6-methyl-pyridin-3-yl)-amide]
7.90 | CN(CCO)C(=O)c1ncccc1NC(=O)c1nc(C2CC2)cnc1Nc1cncnc1 [Example 269, 6-Cyclopropyl-3-(pyrimidin-5-ylamino)-pyrazine-2-carboxylic acid {2-[(2-hydroxy-ethyl)-methyl-carbamoyl]-pyridin-3-yl}-amide]
8.07 | O=C(Nc1ccc(C2CC2)nc1C(=O)N1CCC1)c1nc(C2CC2)cnc1Nc1cncnc1 [Example 272, 6-Cyclopropyl-3-(pyrimidin-5-ylamino)-pyrazine-2-carboxylic acid [2-(azetidine-1-carbonyl)-6-cyclopropyl-pyridin-3-yl]-amide]
9.52 | CC(C)(CO)NC(=O)c1ncccc1NC(=O)c1nc(C2CC2)cnc1Nc1cncnc1 [Example 273, 6-Cyclopropyl-3-(pyrimidin-5-ylamino)-pyrazine-2-carboxylic acid [2-(2-hydroxy-1,1-dimethyl-ethylcarbamoyl)-pyridin-3-yl]-amide]
8.72 | Cc1ccc(NC(=O)c2nc(C3CC3)cnc2Nc2cncnc2)c(C(=O)N2CCC2)n1 [Example 278, 6-Cyclopropyl-3-(pyrimidin-5-ylamino)-pyrazine-2-carboxylic acid [2-(azetidine-1-carbonyl)-6-methyl-pyridin-3-yl]-amide]

Reference: US8703768B2, “Nitrogen containing heteroaryl compounds” (Hoffmann-La Roche Inc., priority 2010, dated 2014)
